Our source for the Ki values is patent US20160229839A1, “Factor XIa Inhibitors” (Merck Sharp & Dohme Corp., priority 2013, published 2016).

Broadly, the Ki is a dissociation constant, usually derived from enzyme kinetics or from competition with a known ligand.

The target in the assay is T1, purified human Factor XIa (Homo sapiens, UniProt P03951).
T1 construct: purified human Factor XIa; purchased Sekisui Diagnostics
T1 sequence (P03951 388-625 limits assumed): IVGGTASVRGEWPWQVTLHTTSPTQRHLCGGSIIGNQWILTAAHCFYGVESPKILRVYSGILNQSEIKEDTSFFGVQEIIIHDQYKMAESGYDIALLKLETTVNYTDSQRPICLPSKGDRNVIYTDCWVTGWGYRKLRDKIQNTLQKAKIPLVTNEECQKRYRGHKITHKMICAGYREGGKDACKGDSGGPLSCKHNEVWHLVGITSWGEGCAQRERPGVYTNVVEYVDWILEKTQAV
T1 sequence (P03951 19-387 partner limits assumed): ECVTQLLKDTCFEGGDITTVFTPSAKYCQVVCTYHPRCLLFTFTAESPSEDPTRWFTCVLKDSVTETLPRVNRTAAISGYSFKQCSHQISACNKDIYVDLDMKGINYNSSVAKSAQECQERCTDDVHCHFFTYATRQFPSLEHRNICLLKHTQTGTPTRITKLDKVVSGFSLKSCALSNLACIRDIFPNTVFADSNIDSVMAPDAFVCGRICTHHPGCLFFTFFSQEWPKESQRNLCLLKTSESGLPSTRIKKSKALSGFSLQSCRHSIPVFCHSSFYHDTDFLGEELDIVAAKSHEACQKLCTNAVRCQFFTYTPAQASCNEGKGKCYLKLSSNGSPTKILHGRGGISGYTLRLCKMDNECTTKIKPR
In words: Factor XIa Assay (fluorogenic substrate Z-Gly-Pro-Arg-AFC). Type of assay: biochemical. The settings on record: purified human Factor XIa 40 pM; Z-Gly-Pro-Arg-AFC 100 μM; 50 mM HEPES pH 7.4; read-out: hFXIa Ki (nM), Factor XIa inhibition. As to the method: The effectiveness of compound of the present invention as inhibitors of Coagulation Factor XIa can be determined using a relevant purified serine protease, and an appropriate synthetic substrate. The rate of hydrolysis of the chromogenic or fluorogenic substrate by the relevant serine protease was measured both in the absence and presence of compounds of the present invention. Assays were conducted at room temperature or at 37° C. […] A decrease in the rate of fluorescence change in the presence of inhibitor is indicative of enzyme inhibition. Such methods are known to one skilled in the art. The results of this assay are expressed as the inhibitory constant, Ki.
Factor XIa determinations were made in 50 mM HEPES buffer at pH 7.4 containing 150 mM NaCl, 5 mM CaCl2, and 0.1% PEG 8000 (polyethylene glycol; J T Baker or Fisher Scientific). Determinations were made using purified human Factor XIa at a final concentration of 40 pM (Sekisui Diagnostics) and he synthetic substrate, Z-Gly-Pro-Arg-AFC, TFA salt (Sigma #C0980) at a concentration of 100 μM.
Activity assays were performed by diluting a stock solution of substrate at least tenfold to a final concentration ≦0.1 Km into a solution containing enzyme or enzyme equilibrated with inhibitor. Times required to achieve equilibration between enzyme and inhibitor were determined in control experiments. Initial velocities of product formation in the absence (Vo) or presence of inhibitor (Vi) were measured. Assuming competitive inhibition, and that unity is negligible compared Km/[S], [I]/e, and [I]/e (where [S], [I], and e respectively represent the total concentrations, of substrate, inhibitor and enzyme), the equilibrium constant (Ki) for dissociation of the inhibitor from the enzyme can be obtained from the dependence of Vo/Vi on [I] shown in the following equation.
`CC(C)(C)OC(=O)c1ccc(NC(=O)C2C(c3ccccc3)CCCN2C(=O)/C=C/c2cc(Cl)ccc2-n2cnnn2)cc1` (racemic) [Example 1-1, (E)-tert-butyl 4-(1-(3-(5-chloro-2-(1H-tetrazol-1-yl)phenyl)acryloyl)-3-phenylpiperidine-2-carboxamido)benzoate]: the Ki was over 10000 nM. As to `O=C(O)c1ccc(NC(=O)[C@@H]2[C@H](c3ccccc3)CCCN2C(=O)/C=C/c2cc(Cl)ccc2-n2cnnn2)cc1` (racemic) [Example 1-2, (E)-1-(2-(3-(2-((4-carboxyphenyl)carbamoyl)-3-phenylpiperidin-1-yl)-3-oxoprop-1-en-1-yl)-4-chlorophenyl)-1H-tetrazol-2-ium 2,2,2-trifluoroacetate], the Ki was 80.9 nM. Consider `NC1CCc2cc(C(=O)N3CCCC(c4ccccc4)C3C(=O)Nc3ccc(C(=O)O)cc3)ccc21` (racemic) [Example 1-14, 4-(1-(1-amino-2,3-dihydro-1H-indene-5-carbonyl)-3-phenylpiperidine-2-carboxamido)benzoic acid], for which the Ki was determined as 572 nM.

As to `COC(=O)c1cccc(-c2c[nH]c(C3C(c4ccccc4)CCCN3C(=O)/C=C/c3cc(Cl)ccc3-n3cnnn3)n2)c1` (racemic) [Example 1-54, (E)-methyl 3-(2-(1-(3-(5-chloro-2-(1H-tetrazol-1-yl)phenyl)acryloyl)-3-phenylpiperidin-2-yl)-1H-imidazol-4-yl)benzoate], the Ki is over 10000 nM. The value for `O=C(O)c1ccc(NC(=O)[C@@H]2[C@H](c3ccccc3)CCCN2C(=O)/C=C/c2cc(Cl)ccc2-n2cnnn2)cc1` (single isomer, unassigned) [Example 1-57] was 7.6 nM; that for `O=C(O)c1cccc(-c2c[nH]c([C@@H]3[C@H](c4ccccc4)CCCN3C(=O)/C=C/c3cc(Cl)ccc3-n3cnnn3)n2)c1` (single isomer, unassigned) [Example 1-69] was 19.3 nM; that for `O=C(O)c1cccc(-c2c[nH]c([C@H]3[C@@H](c4ccccc4)CCCN3C(=O)/C=C/c3cc(Cl)ccc3-n3cnnn3)n2)c1` (single isomer, unassigned) [Example 1-70] was 5730 nM. For the compound `CC(C)(C)OC(=O)c1ccc(NC(=O)C2C(C3CCCCC3)CCCN2C(=O)/C=C/c2cc(Cl)ccc2-n2cnnn2)cc1` (stereo not shown) [Example 1-3, (E)-tert-butyl 4-(1-(3-(5-chloro-2-(1H-tetrazol-1-yl)phenyl)acryloyl)-3-cyclohexylpiperidine-2-carboxamido)benzoate], the Ki was over 10000 nM. Consider `CC(C)(C)OC(=O)C1CCC(NC(=O)C2C(C3CCCCC3)CCCN2C(=O)/C=C/c2cc(Cl)ccc2-n2cnnn2)CC1` (stereo not shown) [Example 1-4, (E)-tert-butyl 4-(1-(3-(5-chloro-2-(1H-tetrazol-1-yl)phenyl)acryloyl)-3-cyclohexylpiperidine-2-carboxamido)cyclohexanecarboxylate], for which the Ki was over 10000 nM. The result for `O=C(O)c1ccc(NC(=O)C2C(C3CCCCC3)CCCN2C(=O)/C=C/c2cc(Cl)ccc2-n2cnnn2)cc1` (stereo not shown) [Example 1-5, (E)-1-(2-(3-(2-((4-carboxyphenyl)carbamoyl)-3-cyclohexylpiperidin-1-yl)-3-oxoprop-1-en-1-yl)-4-chlorophenyl)-1H-tetrazol-2-ium 2,2,2-trifluoroacetate] reads 44 nM. The result for `O=C(O)C1CCC(NC(=O)C2C(C3CCCCC3)CCCN2C(=O)/C=C/c2cc(Cl)ccc2-n2cnnn2)CC1` (stereo not shown) [Example 1-6, 2,2,2-trifluoroacetate] reads 5250 nM; that for `O=C(/C=C/c1cc(Cl)ccc1-n1cnnn1)N1CCCC(c2ccccc2)C1c1nc(-c2cccnc2)c[nH]1` (stereo not shown) [Example 1-7, (E)-3-(5-chloro-2-(1H-tetrazol-1-yl)phenyl)-1-(3-phenyl-2-(4-(pyridin-3-yl)-1H-imidazol-2-yl)piperidin-1-yl)prop-2-en-1-one], 905 nM; that for `N=C(N)N1CCC(C(=O)N2CCCC(c3ccccc3)C2C(=O)Nc2ccc(C(=O)O)cc2)CC1` (stereo not shown) [Example 1-8, 4-(1-(1-carbamimidoylpiperidine-4-carbonyl)-3-phenylpiperidine-2-carboxamido)benzoic acid], 15.4 nM.
